# Experimental data published in patent US9475789B2, “Use of polyenylpyrrole derivatives for treating inflammation” (WELLHEAD BIOLOGICAL TECHNOLOGY CORP., priority 2014, dated 2016).
# Experiments:
# Type in all cases: cell-based, murine
# NF-κB = NF-κB reporter assay (SEAP), RAW-Blue cells; settings: compound 1h 2.5-40 μM, LPS 24 h
# Protocol: (§1) (A) RAW 264.7 macrophages (5×10^5/ml) or (B) J774A.1 macrophages (5×10^5/ml) were incubated with compound 1h or DMSO for 30 min followed by LPS (1 μg/ml) stimulating for 20 min, then the phosphorylation levels of IKK-α and IκB-α and total IκB-α protein level were analyzed by Western blot. (C) RAW 264.7 macrophages (5×10^5/ml) or (D) J774A.1 macrophages (5×10^5/ml) were incubated with compound 1h (10-40 μM) or DMSO for 30 min followed by LPS (1 μg/ml) stimulating for 20 min, then the nuclear translocation of NF-κB were analyzed by ELISA. (E) RAW-Blue™ cells (5×10^5/ml) were incubated with compound 1h (2.5-40 μM) or DMSO for 30 min followed by LPS (1 μg/ml) stimulating for 24 h, then the SEAP activity was measured by QUANTI-Blue™. […] In (C), (D), and (E), the data are expressed as the mean±SD for three separate experiments. *, **, and *** indicate a significant difference at the level of p<0.05, p<0.01, and p<0.001 respectively compared to LPS group.
# RAW-Blue™ cells, RAW 264.7 macrophages which stably express a secreted embryonic alkaline phosphatase (SEAP) gene inducible by NF-κB, were seeded in 60 mm dishes at a density of 5×10^5 cells/ml, and grown overnight in a 5% CO2 incubator at 37° C. […] Results of the SEAP activity were assessed by measuring the optical density at 655 nm using an ELISA reader.
# TNF-α = TNF-α ELISA, LPS-activated J774A.1 macrophages; settings: J774A.1 cells, LPS 1 μg/ml 24 h
# Protocol: (A) J774A.1 macrophages (4×10^5/ml), (B) peritoneal macrophages (4×10^5/ml), and (C) JAWSII dendritic cells (4×10^5/ml) were incubated with compound 1h or DMSO for 30 min followed by stimulating with LPS (1 μg/ml) for 24 h, then IL-6 and TNF-α concentration in culture medium were assayed by ELISA. The data are expressed as the mean±SD for three separate experiments. *, **, and *** indicate a significant difference at the level of p<0.05, p<0.01, p<0.001 respectively compared to LPS group.
# The effects of tested samples on IL-1β, TNF-α and IL-6 production were measured by ELISA according to the manufacturer's instruction. In brief, 50 μl of biotinylated antibody reagent and 50 μl of supernatant were added to an anti-mouse IL-1β, TNF-α and IL-6 precoated stripwell plate, and incubated at room temperature for 2 h. After washing the plate three times with washing buffer, 100 μl of diluted streptavidin-HRP concentrate was added to each well and incubated at room temperature for 30 min. The washing process was repeated; then 100 μl of a premixed tetramethylbenzidine substrate solution was added to each well and developed at room temperature in the dark for 30 min. Following the addition of 100 μl of stop solution to each well to stop the reaction, the absorbance of the plate was measured by a microplate reader at 450 nm wavelength.
# ERK1/2, JNK1/2, p38 = experiment: Western blot of MAPK phosphorylation, LPS-activated RAW 264.7 macrophages; settings: compound 1h 20 μM
# Protocol: In (A), RAW 264.7 macrophages (5×10^5/ml) were incubated with compound 1h (20 μM), N-acetyl cysteine (NAC; 10 mM) or DMSO (vehicle) for 30 min followed by LPS (1 μg/ml) stimulating for the indicated time, then ROS levels were measured by detection of the fluorescence intensity of the fluorophore carboxyl-DCF and expressed relative to those at time zero. In (B), RAW 264.7 macrophages (5×10^5/ml) were incubated with compound 1h (20 μM) or DMSO for 30 min followed by LPS (1 μg/ml) stimulating for 0-60 min, then the phosphorylation levels of ERK1/2, JNK1/2, p38 were analyzed by Western blot. In (C), J774A.1 macrophages (5×10^5/ml) were incubated with compound 1h or DMSO for 30 min followed by LPS (1 μg/ml) stimulating for 20 min, then the phosphorylation levels of ERK1/2, JNK1/2, p38 were analyzed by Western blot.
# (§2) Whole cell lysates were separated by SDS-PAGE and electrotransferred to a PVDF membrane. The membranes were incubated in blocking solution—5% nonfat milk in phosphate buffered saline with 0.1% Tween 20—at room temperature for 1 h. Each membrane was incubated with a specific primary antibody at room temperature for 2 h. After washing three times in PBS with 0.1% Tween 20, the membrane was incubated with an HRP-conjugated secondary antibody directed against the primary antibody. The membrane was developed by an enhanced chemiluminescence Western blot detection system.
# IKK-α and IκB-α = experiment: Western blot of IKK-α and IκB-α, LPS-activated RAW 264.7 macrophages; settings: LPS-activated RAW 264.7, LPS 20 min
# Protocol: as §1, §2
# COX-2 = experiment: Western blot of COX-2 protein in LPS-activated RAW 264.7 macrophages
# Protocol: In (A) and (C), cells (5×10^5/ml) were incubated with polyenylpyrrole derivatives or DMSO (vehicle) for 30 min followed by stimulating with LPS (1 μg/ml) for 24 h, then NO (A), IL-6 and TNF-α (C) concentration in culture medium were assayed by Griess reaction and ELISA, respectively. In (B), cells (5×10^5/ml) were pretreated with polyenylpyrrole derivatives or DMSO for 30 min followed by stimulating with LPS (1 μg/ml) for 24 h, then the protein expression of iNOS and COX-2 were assayed by Western blot.
# as §2
structure (smiles),measurement,setting,value
O=c1cc(O)cc(/C=C/C=C/C=C/C=C/c2[nH]ccc2Cl)o1 [Compound 1h],NF-κB transcriptional activity,NF-κB,reduced
same,secretion of TNF-α,TNF-α,reduced
same,phosphorylation level of ERK1/2,"ERK1/2, JNK1/2, p38",inhibited
same,phosphorylation level of JNK1/2,"ERK1/2, JNK1/2, p38",inhibited
same,phosphorylation level of p38,"ERK1/2, JNK1/2, p38",inhibited
same,IκB-α degradation,IKK-α and IκB-α,partially rescued
same,phosphorylation level of IKK-α,IKK-α and IκB-α,inhibited
same,phosphorylation level of IκB-α,IKK-α and IκB-α,inhibited
same,COX-2 expression,COX-2,did not affect
